Literature values in patent publication US20140271573A1, “PHARMACO-CELLULAR THERAPEUTIC METHOD FOR THE TREATMENT OF MUSCULAR DYSTROPHIES” (PONTIFICIA UNIVERSIDAD CATÓLICA DE CHILE, priority 2013, published 2014).

Experiments:
[1] = system: dystrophin; details: cited from earlier work
[2] = system: MES-13 cells; details: cited from earlier work
[3] = 12 DMD patients, six-month period

gentamicin
clinical benefits in DMD patients [1, 3]: no clinical benefits were observed
patients with dystrophin expression detected [1, 3]: 6 of the 12
dystrophin expression in muscle fibers, of normal levels ([1]; mdx mice and humans): 20%

C=C1CCC2C(C)(CO)C(O)CCC2(C)C1C=CC1=CCOC1=O (stereo not shown) [AP2, 14-deoxy-11,12-didehydroandrographolide]
reduction of caspase-3, TGF-β1 and PAI-1, relative activity ([2]; MES-13 cells, AP2 compared with AP1): potent activity than AP1
phenotypes indicating diabetic nephropathy in MES-13 cells ([2]; MES-13 cells): reduces
antioxidant ability in a cellular environment [2]: do not have antioxidant ability
intracellular oxidative states ([2]; high glucose cultured MES-13 cells): reduced
